Measurements taken from patent US10844049B2, “GLP-1R agonists and uses thereof” (QILU REGOR THERAPEUTICS INC., priority 2018, dated 2020).

biological target: GLP1R (Homo sapiens, UniProt P43220); assay: GLP1R cAMP HTRF assay, HEK293/GLP-1R/CRE/Luc (HEK293T cells); format: cell-based; conditions: read-out: EC50
Protocol: GLP-1R-mediated agonist activity was determined with a cell-based functional assay utilizing an HTRF (Homogeneous Time-Resolved Fluorescence) cAMP detection kit (cAMP Dynamic 2 Assay Kit; CisBio cat #62AM4PEC) that measures cAMP levels in the cell. The method is a competitive immunoassay between native cAMP produced by the cells and exogenous cAMP labeled with the dye d2. The tracer binding is visualized by a mAb anti-cAMP labeled with Cryptate. The specific signal (i.e., energy transfer) is inversely proportional to the concentration of cAMP in either standard or experimental sample.
A cell line stably expressing the receptor was isolated.
Varying concentrations of each compound to be tested (in DMSO) were diluted in DMSO to obtain 200× compound working solution first and then 50 nl compounds were added to a white 384-well assay plate (Greiner 784075) with ECHO. The final DMSO concentration was 0.5%. The compound concentration range may be adjusted at any time.
Cells were removed from cryopreservation, re-suspended in 5 mL of Dulbecco's Phosphate Buffered Saline (DPBS-Sigma Cat # D8537) and centrifuged at 900 g for 5 min at 22° C. The cell pellet was then re-suspended in 1 mL of assay buffer [DPBS with 500 μM IBMX (Sigma #15879) and 0.1% BSA (Sigma # A1933). IBMX and BSA were freshly added on the day of assay]. A 10 μL sample of the cell suspension was counted on an Invitrogen Countess II to determine cell viability and cell count per mL. The remaining cell suspension was then adjusted with assay buffer to deliver 1000 viable cells per well using a Matrix Combi Multidrop reagent dispenser. 10 μL cell suspensions were added to each well of the assay plate which already contains compound. The plate was sealed and incubated at 37° C. with 5% CO2 for 30 minutes.
Following the 30 minute incubation, 5 μL of labeled d2 cAMP and 5 μL of anti-cAMP antibody (both diluted 1:20 in cell lysis buffer; as described in the manufacturer's assay protocol) were added to each well of the assay plate. The plates w ere then incubated at room temperature and after 60 minutes, changes in the HTRF signal were read with an Envision multi-label plate reader using excitation of 330 nm and emissions of 615 and 665 nm. Raw data were converted to nM cAMP by interpolation from a cAMP standard curve (as described in the manufacturer's assay protocol) and the percent effect was determined relative to a saturating concentration of the full agonist GLP-17-37 (10 nM) included on each plate. EC50 determinations were made from agonist dose-response curves analyzed with a curve fitting program using a 4-parameter logistic dose response equation.
3) Anti-cAMP antibody-cryptate working solution preparation • c) The lyophilisate was reconstituted with appropriate amount of distilled water according to manufacturer's instruction to make working stock which can be aliquoted and frozen (−20° C.). • d) The working stock solution was diluted 1:20 in the conjugate and lysis buffer before use. Procedures Procedures for Cell Suspension Preparation • 1. Frozen cells were thawed very briefly in a 37° C. water bath under sterile conditions until just before ice completely melt (for about 1 minute) with a continuous agitation. Caution was taken because a longer incubation could result in cell death. • 2. DMSO was removed from the media by carefully transferring thawed cells to a sterile 15/50 mL tube, filling a tube with 10-50 mL of complete media pre-warmed to 37° C., and allowing the cells to sit 5 min before centrifuging at 900 rpm for 5 minutes for cell collection. • 3. The cells were resuspended with assay buffer. • 4. For stable GLP1-R assay, the optimized cell density is 1000 cells/well. Caution was taken because cell density optimization was crucial and needed to be optimized in different laboratories. The level of cAMP produced by the cells must fall within the linear range of the standard curve.

GLP1R, sequence (P43220 24-463): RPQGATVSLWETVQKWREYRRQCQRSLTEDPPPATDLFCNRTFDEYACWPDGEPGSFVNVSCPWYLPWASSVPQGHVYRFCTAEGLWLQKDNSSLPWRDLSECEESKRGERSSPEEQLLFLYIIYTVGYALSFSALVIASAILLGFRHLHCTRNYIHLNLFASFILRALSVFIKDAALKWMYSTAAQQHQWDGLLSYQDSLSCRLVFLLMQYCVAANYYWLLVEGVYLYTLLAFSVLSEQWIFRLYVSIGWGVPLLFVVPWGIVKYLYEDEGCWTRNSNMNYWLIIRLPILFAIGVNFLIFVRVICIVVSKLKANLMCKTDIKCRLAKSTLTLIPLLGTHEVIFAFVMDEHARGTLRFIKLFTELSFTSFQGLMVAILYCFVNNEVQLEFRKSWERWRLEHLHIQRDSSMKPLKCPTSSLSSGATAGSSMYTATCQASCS

| Compound | EC50 [nM] |
| --- | --- |
| O=C(O)c1ccc2nc(CN3CC=C(c4nccc(OCc5ccc(Cl)cc5F)n4)CC3)n(C[C@@H]3CCO3)c2c1 [Compound 33, (S)-2-((4-(4-(4-chloro-2-fluorobenzyloxy)pyrimidin-2-yl)-5,6-dihydropyridin-1(2H)-yl)methyl)-1-(oxetan-2-ylmethyl)-1 h-benzo[d]imidazole-6-carboxylic acid] | ≤ 15 |
| O=C(O)c1ccc2nc(CN3CC=C(c4cc5cc[nH]c5c(OCc5ccc(Cl)cc5F)n4)CC3)n(C[C@@H]3CCO3)c2c1 [Compound 48, (S)-2-((4-(7-((4-chloro-2-fluorobenzyl)oxy)-1 h-pyrrolo[2,3-c]pyridin-5-yl)-3,6-dihydropyridin-1(2H)-yl)methyl)-1-(oxetan-2-ylmethyl)-1 h-benzo[d]imidazole-6-carboxylic acid] | ≤ 150 |
| (S)-2-((4-(2-((4-(cyclopropylethynyl)-2-fluorobenzyl)oxy)pyrimidin-4-yl)piperazin-1-yl)methyl)-1-(oxetan-2-ylmethyl)-1H-benzo[d]imidazole-6-carboxylic add [Compound 194] | ≤ 150 |
| O=C(O)c1ccc2nc(CN3CC=C(c4ccc5c(n4)N(CCc4cccc(Cl)c4)CCO5)CC3)n(C[C@@H]3CCO3)c2c1 [Compound 37, (S)-2-((4-(4-(3-chlorophenethyl)-3,4-dihydro-2 h-pyrido[3,2-b][1,4]oxazin-6-yl)-5,6-dihydropyridin-1(2H)-yl)methyl)-1-(oxetan-2-ylmethyl)-1 h-benzo[d]imidazole-6-carboxylic acid] | > 1000 |
| O=C(O)c1ccc2nc(CN3CC=C(c4cccc(OC5CCCc6cc(Cl)ccc65)n4)CC3)n(C[C@@H]3CCO3)c2c1 (stereo partly drawn) [Compound 60, 2-((6-((6-chloro-1,2,3,4-tetrahydronaphthalen-1-yl)oxy)-3′,6′-dihydro-[2,4′-bipyridin]-1′(2′H)-yl)methyl)-1-(((S)-oxetan-2-yl)methyl)-1H-benzo[d]imidazole-6-carboxylic acid] | ≤ 1000 |
| O=C(O)c1ccc2nc(CN3CC=C(c4cccc(CCc5ccc(Cl)cc5F)n4)CC3)n(C[C@@H]3CCO3)c2c1 [Compound 113, (S)-2-((6-(4-chloro-2-fluorophenethyl)-3′,6′-dihydro-[2,4′-bipyridin]-1′(2′H)-yl)methyl)-1-(oxetan-2-ylmethyl)-1H-benzo[d]imidazole-6-carboxylic acid] | ≤ 150 |
| O=C(O)c1ccc2nc(CN3CCN(c4cccn(CCc5ccc(Cl)cc5F)c4=O)CC3)n(C[C@@H]3CCO3)c2c1 [Compound 8, (S)-2-((4-(1-(4-chloro-2-fluorophenethyl)-2-oxo-1,2-dihydropyridin-3-yl)piperazin-1-yl)methyl)-1-(oxetan-2-ylmethyl)-1h-benzo[d]imidazole-6-carboxylic acid] | > 1000 |
| O=C(O)c1ccc2nc(CN3CC=C(n4cccc(OCc5ccc(Cl)cc5F)c4=O)CC3)n(C[C@@H]3CCO3)c2c1 [Compound 51, (S)-2-((4-(3-(4-chloro-2-fluorobenzyloxy)-2-oxopyridin-1(2H)-yl)-5,6-dihydropyridin-1(2H)-yl)methyl)-1-(oxetan-2-ylmethyl)-1 h-benzo[d]imidazole-6-carboxylic acid] | > 1000 |
| O=C(O)c1ccc2nc(CN3CC=C(c4cc(F)cc(OCc5ccc(Cl)cc5F)c4)CC3)n(C[C@@H]3CCO3)c2c1 [Compound 42, (S)-2-((4-(3-((4-chloro-2-fluorobenzyl)oxy)-5-fluorophenyl)-3,6-dihydropyridin-1(2H)-yl)methyl)-1-(oxetan-2-ylmethyl)-1 h-benzo[d]imidazole-6-carboxylic acid] | ≤ 15 |
| O=C(O)c1ccc2nc(CN3CC=C(c4cccc(NC5CCOc6cc(Cl)ccc65)n4)CC3)n(C[C@@H]3CCO3)c2c1 (stereo partly drawn) [Compound 61, 2-((4-(6-(7-chlorochroman-4-ylamino)pyridin-2-yl)-5,6-dihydropyridin-1(2H)-yl)methyl)-1-((S)-oxetan-2-ylmethyl)-1H-benzo[d]imidazole-6-carboxylic acid] | ≤ 1000 |

Continued, values first:

| EC50 [nM] | Compound |
| --- | --- |
| ≤ 15 | CC(C)c1ccc(COc2cccc(C3=CCN(Cc4nc5ccc(C(=O)O)cc5n4C[C@@H]4CCO4)CC3)n2)cc1 [Compound 148] |
| ≤ 150 | O=C(O)c1ccc2nc(CN3CC=C(c4cc(OCc5ccc(C#CC6CC6)cc5F)ccc4F)CC3)n(C[C@@H]3CCO3)c2c1 [Compound 208] |
| ≤ 15 | O=C(O)c1ccc2nc(CN3CC=C(c4ccc(F)c(NCc5ccc(Cl)cc5F)c4)CC3)n(C[C@@H]3CCO3)c2c1 [Compound 129, (S)-2-((4-(3-((4-chloro-2-fluorobenzyl)amino)-4-fluorophenyl)-3,6-dihydropyridin-1(2H)-yl)methyl)-1-(oxetan-2-ylmethyl)-1H-benzo[d]imidazole-6-carboxylic acid] |
| ≤ 1000 | O=C(O)c1ccc2nc(CN3CCN(c4cc(OCc5ccc(C#CC6CC6)cc5F)ccc4F)CC3)n(C[C@@H]3CCO3)c2c1 [Compound 198, (S)-2-((4-(5-((4-(cyclopropylethynyl)-2-fluorobenzyl)oxy)-2-fluorophenyl)piperazin-1-yl)methyl)-1-(oxetan-2-ylmethyl)-1H-benzo[d]imidazole-6-carboxylic acid] |
| ≤ 15 | O=C(O)c1ccc2nc(CN3CCN(c4ccc(F)c(OCc5ccc(Cl)cc5F)c4)CC3)n(C[C@@H]3CCO3)c2c1 [Compound 184, (S)-2-((4-(3-((4-chloro-2-fluorobenzyl)oxy)-4-fluorophenyl)piperazin-1-yl)methyl)-1-(oxetan-2-ylmethyl)-1H-benzo[d]imidazole-6-carboxylic acid] |
| ≤ 150 | O=C(O)c1ccc2nc(CC3CCN(c4cccc(OCc5ccc(Cl)cn5)n4)CC3)n(C[C@@H]3CCO3)c2c1F [Compound 232, (S)-2-((l-(6-((5-chloropyridin-2-yl)methoxy)pyridin-2-yl)piperidin-4-yl)methyl)-7-fluoro-1-(oxetan-2-ylmethyl)-1H-benzo[d]imidazole-6-carboxylic acid] |
| ≤ 15 | N#Cc1ccc(COc2nccc(C3=CCN(Cc4nc5ccc(C(=O)O)cc5n4C[C@@H]4CCO4)CC3)n2)c(F)c1 [Compound 177, (S)-2-((4-(2-((4-cyano-2-fluorobenzyl)oxy)pyrimidin-4-yl)-5,6-dihydropyridin-1(2H)-yl)methyl)-1-(oxetan-2-ylmethyl)-1H-benzo[d]imidazole-6-carboxylic add] |
| ≤ 15 | O=C(O)c1ccc2nc(CN3CC=C(c4cccc(OCc5ccc(Cl)c(Cl)c5)n4)CC3)n(C[C@@H]3CCO3)c2c1 [Compound 115, (S)-2-((6-((3,4-dichlorobenzyl)oxy)-3′,6′-dihydro[2,4′-bipyridin]-1′(2′H)-yl)methyl)-1-(oxetan-2-ylmethyl)-1H-benzo[d]imidazole-6-carboxylic add] |
| ≤ 150 | O=C(O)c1ccc2nc(CN3CC=C(c4cccc(OCc5cc(F)cc(F)c5)n4)CC3)n(C[C@@H]3CCO3)c2c1 [Compound 142, (S)-2-((6-((3,5-difluorobenzyl)oxy)-3′,6′-dihydro-[2,4′-bipyridin]-1′(2′H)-yl)methyl)-1-(oxetan-2-ylmethyl)-1H-benzo[d]imidazole-6-carboxylic acid] |
| ≤ 15 | O=C(O)c1ccc2nc(CN3CC=C(c4cccc(OCc5ccc(Cl)cc5Cl)n4)CC3)n(C[C@@H]3CCO3)c2c1 [Compound 114, (S)-2-((6-((2,4-dichlorobenzyl)oxy)-3′,6′-dihydro-[2,4′-bipyridin]-1′(2′H)-yl)methyl)-1-(oxetan-2-ylmethyl)-1H-benzo[d]imidazole-6-carboxylic add] |
| ≤ 150 | N#Cc1ccc(COc2cccc(N3CCN(Cc4nc5ccc(C(=O)O)cc5n4C[C@@H]4CCO4)CC3)c2)c(F)c1 [Compound 193, (S)-2-((4-(3-(4-cyano-2-fluorobenzyloxy)phenyl)piperazin-1-yl)methyl)-1-(oxetan-2-ylmethyl)-1H-benzo[d]imidazole-6-carboxylic acid] |
